From patent US6875760B2 (Novo Nordisk A/S, priority 1999, dated 2005)

Each compound was assayed against T1, cloned human glucagon receptor (Homo sapiens, UniProt P47871) (assay: Glucagon Binding Assay (II)). Conditions: plasma membranes of BHK cells expressing the receptor; read-out: Glu Bd Assay (II) IC50.
T1 construct: expressed in transfected cells; plasma membrane preparation
T1 sequence (P47871 26-477): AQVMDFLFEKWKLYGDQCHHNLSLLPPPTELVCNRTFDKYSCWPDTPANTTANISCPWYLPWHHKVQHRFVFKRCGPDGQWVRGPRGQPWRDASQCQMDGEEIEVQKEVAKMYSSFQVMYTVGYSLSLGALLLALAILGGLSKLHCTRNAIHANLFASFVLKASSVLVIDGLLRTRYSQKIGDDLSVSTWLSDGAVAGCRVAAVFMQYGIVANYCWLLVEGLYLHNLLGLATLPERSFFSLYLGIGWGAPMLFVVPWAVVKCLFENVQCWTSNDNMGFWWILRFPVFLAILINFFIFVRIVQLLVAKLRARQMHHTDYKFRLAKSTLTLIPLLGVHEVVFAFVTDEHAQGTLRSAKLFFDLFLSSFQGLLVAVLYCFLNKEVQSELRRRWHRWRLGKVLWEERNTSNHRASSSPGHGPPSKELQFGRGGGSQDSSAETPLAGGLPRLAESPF
In the case of `CC(C)(C)C1CCC(N(Cc2ccc(C(=O)Nc3nn[nH]n3)cc2)C(=O)Nc2cc(Cl)cc(Cl)c2)CC1` (stereo not shown) [Example 172, 4-[1-(4-tert-Butylcyclohexyl)-3-(3,5-dichlorophenyl)ureidomethyl]-N-(2H-tetrazol-5-yl)benzamide], the IC50 is reported as 0.007 µM.
Compound `CC(C)(C)C1CCC(N(Cc2ccc(C(=O)NCc3nn[nH]n3)cc2)C(=O)Nc2cc(Cl)cc(Cl)c2)CC1` (stereo not shown) [Example 173, 4-[1-(4-tert-Butylcyclohexyl)-3-(3,5-dichlorophenyl)ureidomethyl]-N-(2H-tetrazol-5-ylmethyl)benzamide] has an IC50 of 0.023 µM.
Compound `CC(C)(C)[C@H]1CC[C@H](N(Cc2ccc(C(=O)Nc3nn[nH]n3)cc2)C(=O)Nc2cc(Cl)cc(Cl)c2)CC1` [Example 174, 4-[1-(trans-4-tert-Butylcyclohexyl)-3-(3,5-dichlorophenyl)ureidomethyl]-N-(2H-tetrazol-5-yl)benzamide] has an IC50 of 0.011 µM.
`CC1CC(N(Cc2ccc(C(=O)NCCC(=O)O)cc2)C(=O)Nc2cc(Cl)cc(Cl)c2)CC(C)(C)C1` (stereo not shown) [Example 176, 3-{4-[3-(3,5-Dichlorophenyl)-1-(3,3,5-trimethylcyclohexyl)ureidomethyl]benzoylamino)propionic acid] gave an IC50 of 0.641 µM.
`CC1CC(C)CC(N(Cc2ccc(C(=O)NCCC(=O)O)cc2)C(=O)Nc2cc(Cl)cc(Cl)c2)C1` (stereo not shown) [Example 177, 3-{4-[3-(3,5-Dichlorophenyl)-1-(3,5-dimethylcyclohexyl)ureidomethyl]benzoylamino)propionic acid] gave an IC50 of 0.454 µM.
Compound `O=C(O)CCNC(=O)c1ccc(CN(C(=O)Nc2ccc(OC(F)(F)F)cc2)C2CCC3(CC2)SCCS3)cc1` [Example 178, 3-{4-[1-(1,4-Dithiaspiro[4.5]dec-8-yl)-3-(4-trifluoromethoxyphenyl)ureidomethyl]benzoylamino)propionic acid] has an IC50 of 0.999 µM.

Same assay, conditions: screened at 1 μM; library compounds; read-out: displacement of the glucagon tracer when screened at 1 μM concentration in the glucagon binding assay II
Compound `CC(C)(C)C1CCC(N(Cc2ccc(C(=O)Nc3ccc4c(c3)C(=O)NC4=O)cc2)C(=O)Nc2ccc(Cl)cc2)CC1` (stereo not shown) [Example 166, 4-[1-(4-tert-Butylcyclohexyl)-3-(4-chlorophenyl)ureidomethyl]-N-(1,3-dioxo-2,3-dihydro-1H-isoindol-5-yl)benzamide] has an inhibition at 1 µM greater than 50%.
`CC(C)(C)C1CCC(N(Cc2ccc(C(=O)Nc3ccc4c(c3)OCCO4)cc2)C(=O)Nc2cc(Cl)cc(Cl)c2)CC1` (stereo not shown) [Example 168, 4-[1-(4-tert-Butylcyclohexyl)-3-(3,5-dichlorophenyl)ureidomethyl]-N-(2,3-dihydro-1,4-benzodioxin-6-yl)benzamide] gave an inhibition at 1 µM greater than 50%.
Compound `CC(C)(C)C1CCC(N(Cc2ccc(C(=O)Nc3ccc(O)c([N+](=O)[O-])c3)cc2)C(=O)Nc2cc(Cl)cc(Cl)c2)CC1` (stereo not shown) [Example 169, 4-[1-(4-tert-Butylcyclohexyl)-3-(3,5-dichlorophenyl)ureidomethyl]-N-(4-hydroxy-3-nitrophenyl)benzamide] has an inhibition at 1 µM greater than 50%.
`CC(C)(C)C1CCC(N(Cc2ccc(C(=O)Nc3ncnc4[nH]ncc34)cc2)C(=O)Nc2cc(Cl)cc(Cl)c2)CC1` (stereo not shown) [Example 170, 4-[1-(4-tert-Butylcyclohexyl)-3-(3,5-dichlorophenyl)ureidomethyl]-N-(1H-pyrazolo[3,4-d]pyrimidin-4-yl)benzamide] was tested, and the inhibition at 1 µM was greater than 50%.
For `CC(C)(C)C1CCC(N(Cc2ccc(C(=O)Nc3ccc4c(c3)C(=O)NC4=O)cc2)C(=O)Nc2cc(Cl)cc(Cl)c2)CC1` (stereo not shown) [Example 171, 4-[1-(4-tert-Butylcyclohexyl)-3-(3,5-dichlorophenyl)ureidomethyl]-N-(1,3-dioxo-2,3-dihydro-1H-isoindol-5-yl)benzamide], the inhibition at 1 µM was greater than 50%.
For `O=C(O)CCNC(=O)c1ccc(CN(CCc2cccc(Cl)c2)C(=O)Nc2ccc(OC(F)(F)F)cc2)cc1` [Example 180, 3-{4-[1-[2-(3-Chlorophenyl)ethyl]-3-(4-trifluoromethoxyphenyl)ureidomethyl]benzoylamino}propionic acid], the inhibition at 1 µM was greater than 50%.
With `O=C(O)CCNC(=O)c1ccc(CN(CCc2cccc(Cl)c2)C(=O)Nc2ccc(Cl)c(C(F)(F)F)c2)cc1` [Example 181, 3-{4-[1-[2-(3-Chlorophenyl)ethyl]-3-(4-chloro-3-trifluoromethylphenyl)ureidomethyl]benzoylamino}propionic acid] the inhibition at 1 µM was greater than 50%.
`O=C(O)CCNC(=O)c1ccc(CN(C(=O)Nc2ccc(OC(F)(F)F)cc2)c2ccc3nc(S)sc3c2)cc1` [Example 182, 3-{4-[1-(2-Mercaptobenzothiazol-6-yl)-3-(4-trifluoromethoxyphenyl)ureidomethyl]benzoylamino}propionic acid] was tested, and the inhibition at 1 µM was greater than 50%.
With `O=C(O)CCNC(=O)c1ccc(CN(C(=O)Nc2ccc(Cl)c(C(F)(F)F)c2)c2ccc3nc(S)sc3c2)cc1` [Example 183, 3-{4-[3-(4-Chloro-3-trifluoromethylphenyl)-1-(2-mercaptobenzothiazol-6-yl)ureidomethyl]benzoylamino}propionic acid] the inhibition at 1 µM was greater than 50%.
`O=C(O)CCNC(=O)c1ccc(CN(C(=O)Nc2ccc(C(=O)O)cc2)c2ccc3c(c2)OCO3)cc1` [Example 184, 4-{3-(Benzo[1,3]dioxo-5-yl)-3-[4-(2-carboxyethylcarbamoyl)benzyl]ureido}benzoic acid] gave an inhibition at 1 µM greater than 50%.
`O=C(O)CCNC(=O)c1ccc(CN(C(=O)Nc2ccc(Cl)c(C(F)(F)F)c2)c2ccc(C3CCCCC3)cc2)cc1` [Example 185, 3-{4-[3-(4-Chloro-3-trifluoromethylphenyl)-1-(4-cyclohexylphenyl)ureidomethyl]benzoylamino}propionic acid] was tested, and the inhibition at 1 µM was greater than 50%.
In the case of `Cc1cc(C)cc(NC(=O)N(Cc2ccc(C(=O)NCCC(=O)O)cc2)c2ccc(C3CCCCC3)cc2)c1` [Example 186, 3-{4-[1-(4-Cyclohexylphenyl)-3-(3,5-dimethylphenyl)ureidomethyl]benzoylamino}propionic acid], the inhibition at 1 µM is reported as greater than 50%.
With `O=C(O)CCNC(=O)c1ccc(CN(Cc2ccc(Br)cc2)C(=O)Nc2ccc(Cl)c(C(F)(F)F)c2)cc1` [Example 190, 3-{4-[1-(4-Bromobenzyl)-3-(4-chloro-3-trifluoromethylphenyl)ureidomethyl]benzoylamino}propionic acid] the inhibition at 1 µM was greater than 50%.
`O=C(O)CCNC(=O)c1ccc(CN(C(=O)Nc2ccc(Cl)c(C(F)(F)F)c2)c2ccc3c(c2)OC(F)(F)C(F)(F)O3)cc1` [Example 191, 3-{4-[3-(4-Chloro-3-trifluoromethyl-phenyl)-1-(2,2,3,3-tetrafluoro-2,3-dihydrobenzo[1,4]-dioxin-6-yl)ureidomethyl]benzoylamino}propionic acid] showed an inhibition at 1 µM greater than 50%.
For `O=C(O)CCNC(=O)c1ccc(CN(C(=O)Nc2ccc(Cl)c(C(F)(F)F)c2)C2CCC(NC(=O)C(F)(F)F)CC2)cc1` (stereo not shown) [Example 192, 3-(4-{3-(4-Chloro-3-trifluoromethylphenyl)-1-[4-(2,2,2-trifluoroacetylamino)cyclohexyl]ureidomethyl}benzoylamino)propionic acid], the inhibition at 1 µM was greater than 50%.
For `CC1CCCCN1CCCN(Cc1ccc(C(=O)NCCC(=O)O)cc1)C(=O)Nc1ccc(Cl)c(C(F)(F)F)c1` (stereo not shown) [Example 193, 3-(4-{3-(4-Chloro-3-trifluoromethylphenyl)-1-[3-(2-methylpiperidin-1-yl)propyl]ureidomethyl}benzoylamino)propionic acid], the inhibition at 1 µM was greater than 50%.
